Experimental data published in publication PMC10304650 (Journal of medicinal chemistry, 2023).

Legend:
[1] = tested on: bladder cancer cell lines; assay: Cell proliferation, CellTiter-Glo, 72 hours; format: cell-based, human; details: three bladder cancer cell lines
[2] = tested on: phosphorylation of 4E-BP1 in T24 cells; assay: Phosphorylation of 4E-BP1 by western blot; format: cell-based, human; details: 1 μM, 24h
97 kinases = assay: KINOMEscan profiling; format: binding; details: 97 kinases examined
other CK1 isoforms = assay: Specificity among CK1 isoforms; format: biochemical

Fc1ccc2[nH]c(CNc3nc(N4CCOCC4)nc4c3ncn4-c3ccc4ccccc4c3)nc2c1F [SR-4133, N-((4,5-difluoro-1H-benzo[d]imidazol-2-yl)methyl)-2-morpholino-9-(naphthalen-2-yl)-9Hpurin-6-amine]
Antiproliferative potency, EC50 [1]: high nanomolar | Inhibition of phosphorylation of T37/46, S65 and T70 of 4E-BP1 [2]: blocks the phosphorylation | KINOMEscan binding affinity (97 kinases): weak binding affinity only to CK1δ, PDGFRB, and TRKA | Inhibition of other CK1 isoforms (other CK1 isoforms): do not inhibit

COc1ccc(-n2cnc3c(NCc4nc5c(F)c(F)ccc5[nH]4)nc(N4CCOCC4)nc32)cc1 [SR-4310, N-((6,7-difluoro-1H-benzo[d]imidazol-2-yl)methyl)-9-(4-methoxyphenyl)-2-morpholino-9H-purin-6-amine]
Antiproliferative potency, EC50 [1]: nanomolar | Inhibition of other CK1 isoforms (other CK1 isoforms): do not inhibit
